Results on 25 compounds are retold here after ChEMBL document CHEMBL1136691, “Identification of novel and potent isoquinoline aminooxazole-based IMPDH inhibitors” (Bioorg Med Chem Lett, 2003).

Each structure is given as a SMILES string.

The test addresses Inosine-5'-monophosphate dehydrogenase 2 (Homo sapiens, UniProt P12268). Briefly: Inhibitory activity against inosine […] monophosphate dehydrogenase type II (IMPDH II).
Consider `CC(=O)Nc1ccc2cnccc2c1Br`, for which the IC50 is > 5000 nM.

Compound `Cc1cccc(NC(=O)Nc2ccc3cncnc3c2)c1` came in with an IC50 of 150 nM. The result for `CC(=O)Nc1ccc2cnccc2c1` reads > 5000 nM; that for `Cc1cccc(NC(=O)Nc2ccc3nnccc3c2)c1`, > 1700 nM. The result for `C=CCc1c(N)ccc2cnccc12` reads 3000 nM. The result for `Cc1cccc(NC(=O)Nc2ccc3cnccc3c2)c1` reads 18 nM; that for `COc1ccc2cnccc2c1Br`, > 5000 nM. Take `CC(=O)Nc1ccc2cnccc2c1Cl`: the IC50 is > 5000 nM. In turn, `O=C(NCc1ccccc1)Nc1ccc2cnccc2c1` showed an IC50 of 400 nM. `C=Cc1c(N)ccc2cnccc12`: half-maximal inhibition (IC50) was put at 820 nM.

With `Cc1c(N)ccc2cnccc12`, the IC50 is > 5000 nM. The result for `Cc1cccc(NC(=O)Nc2ccc3cnncc3c2)c1` reads > 5000 nM; that for `Cc1ccccc1NC(=O)Nc1ccc2cnccc2c1`, 3800 nM.

In turn, `Nc1ccc2cnccc2c1Cl` displayed an IC50 of 1200 nM. The result for `c1ccc(-c2cnc(Nc3ccc4cncnc4c3)o2)cc1` reads 60 nM; that for `O=C(Nc1ccccc1)Nc1ccc2cnccc2c1Cl`, 1660 nM. Then `O=C(Nc1ccccc1)Nc1ccc2cnccc2c1`, with 740 nM; and `Nc1ccc2cnccc2c1Br`, with 550 nM; and `O=C(Nc1ccccc1)Nc1ccc2ccncc2c1`, with > 5000 nM. `O=C(Nc1ccccc1)Nc1ccc2cnccc2c1Br` returned a half-inhibitory concentration (IC50) of 740 nM.

As for `CCCc1c(N)ccc2cnccc12`, the half-maximal inhibitory concentration (IC50) was > 5000 nM. `Nc1ccc2cnccc2c1N`: the IC50 was > 5000 nM. Consider `Cc1ccc(NC(=O)Nc2ccc3cnccc3c2)cc1`, for which the IC50 is 247 nM. The result for `c1ccc(-c2cnc(Nc3ccc4cnccc4c3)o2)cc1` reads 5 nM; that for `Nc1ccc2cnccc2c1`, > 5000 nM.

For orientation: IC50 means the concentration that gives 50% inhibition. The low end stands for greater potency, the high end for weaker potency.
